From US7499894B2, “Cerebral programming” (priority 2001, dated 2009)

Columns and labels:
[1] = tested on: cultured cortical network; details: perfusion with APV and CNQX together; many published reports; cited from earlier work
[2] = tested on: cultured network of cortical neurons; test: Spiking activity of cultured cortical network, intracellular and MEA recordings; type: cell-based, rat; details: all three applied together: 5 μM bicuculin, 10 μM DNQX and 20 μM APV; cortical neurons from newborn rats on MEA
Method: Culture techniques. Cortical neurons are obtained from newborn rats within 24 hours from birth, following standard procedures. The cortex tissue is digested enzymatically and mechanically dissociated. The neurons are plated directly onto substrate-integrated multi-electrode array (MEA) dishes (see below). The cultures are bathed in MEM supplemented with heat-inactivated horse serum (5%), Glutamine (0.5 mM), Glucose (20 mM), and Gentamycin (10 μg/ml), and maintained in an atmosphere of 37° C., 5% CO2 and 95% air in a tissue culture incubator and during the recording phases. Half of the medium is exchanged twice a week. Experiments are performed in the third week after plating, thus allowing complete maturation of the neurons.
The electrical activity of the cultured network is dependent upon synaptic transmission: there are many published reports showing that the electrical activity in a cultured cortical network may be blocked by perfusion with the N-Methyl-D-aspartate (NMDA) receptor antagonist D-2-amino-5-phosphonovalerate (APV) and non-NMDA receptor antagonist 6-cyano-7-nitroquinoxaline-2,3-dion (CNQX). We repeated these experiments, using intracellular recordings as well as MEA recordings.
Electrophysiological methods. We use arrays of 60 Ti/Au/TiN electrodes, 30 μm in diameter, spaced 200 μm from each other (MultiChannelSystems (MCS), Reutlingen, Germany). The insulation layer (silicon nitride), is pretreated with poly-L-lysine forming a good surface for network development. A commercial 60-channel amplifier (B-MEA-1060, MCS, Reutlingen, Germany) with frequency limits of 10-3000 Hz and a gain of ×1024 is used. The B-MEA-1060 is connected to MCPPlus filter amplifiers (Alpha Omega, Nazareth, Israel) for further amplification (×10 to ×20). Stimulation through the MEA is performed using a dedicated 8-channel stimulus generator (MCS, Reutlingen, Germany). Micro-incubation environment is arranged, to support long-term recordings from MEA dishes. […]

N[C@H](CCCP(=O)(O)O)C(=O)O [APV, D-2-amino-5-phosphonovalerate]
electrical activity in a cultured cortical network [1]: blocked
spiking activity within the cultured network [2]: completely abolished

N#Cc1cc2c(cc1[N+](=O)[O-])=NC(=O)C(=O)N=2 [CNQX, 6-cyano-7-nitroquinoxaline-2,3-dion]
electrical activity in a cultured cortical network [1]: blocked

O=[N+]([O-])c1cc2nc(O)c(O)nc2cc1[N+](=O)[O-] [DNQX]
spiking activity within the cultured network [2]: completely abolished

CN1CCc2cc3c(cc2[C@H]1[C@@H]1OC(=O)c2c1ccc1c2OCO1)OCO3 [bicuculin]
spiking activity within the cultured network [2]: completely abolished
